According to patent publication US11029279B2, “Method of detecting cells” (National Tsing Hua University, priority 2018, dated 2021):

What was measured:
[1] = system: human colorectal cancer cell line HCT-8 cells; assay: Cadmium block of calcium channels (sensor device response); assay type: cell-based
Method: (§1) In the present example, the sensor device 200 shown in FIG. 2 was used for detection, wherein the distance between the response electrode of the sensor device and the gate end: 65 μm; and the area of the detection region: 10×60 μm^2. Moreover, a specific aptamer of a human colorectal cancer cell line HCT-8 cell was bonded to the response electrode of the sensor device.
(§2) In the present embodiment, source and drain properties were measured and recorded using an Agilent B1530/B1500A semiconductor parameter analyzer. Operating conditions: VD=2.5 V; Vg=2 V; pulse duration=50 μs. The change in source current before and after a gate bias is applied is defined as the current gain.
In the present embodiment, human colorectal cancer cell line HCT-8 cells were used as the target cells. The HCT-8 cells were cultured in an RPMI-1640 cell culture medium (Invitrogen Co., USA). […]
In experimental example 3, HBSS w/Ca and HBSS w/Ca containing different cadmium ion concentrations (5 uM, 10 uM, 20 uM, 50 uM, and 100 uM) are used as reference solutions, and the baselines of the sensor device were calculated using the reference solutions. […]

[2] = system: human colorectal cancer cell line HCT-8 cells; assay: Sensor device response to depolarization induced by KCl; assay type: cell-based
Method: as §1, §2
In the present embodiment, human colorectal cancer cell line HCT-8 cells were used as the target cells. The HCT-8 cells were cultured in an RPMI-1640 cell culture medium (Invitrogen Co., USA). During a subsequent electrical measurement, the HCT-8 cells were suspended in a Hank balanced salt solution having calcium ions and magnesium ions (hereinafter HBSS w/Ca&Mg), a Hank balanced salt solution without calcium ions and magnesium ions (hereinafter HBSS w/o Ca&Mg), or a Hank balanced salt solution having calcium ions (hereinafter HBSS w/Ca) to prepare a test solution. In the Hank balanced salt solution having calcium ions and magnesium ions (HBSS w/Ca&Mg), the calcium ions were 1.2 mM and the magnesium ions are 0.8 mM. […]

SMILES	value of the detection current (Δ current gain) ([1]; cadmium concentration further increased from 20 μM to 100 μM in HBSS w/Ca, cells depolarized)	detection current (Δ current gain) ([1]; cadmium ion concentrations of 10 μM and 20 μM in HBSS w/Ca, cells repolarized)	value of the detection current (second current gain minus first current gain, Δ current gain) ([2]; KCl concentration of 5 mM in HBSS w/Ca&Mg, cells have polarized potential)	value of the detection current (second current gain minus first current gain, Δ current gain) ([2]; KCl concentration of 10 mM to 30 mM in HBSS w/Ca&Mg, cells depolarized)
[Cd+2] [cadmium ion]	negative	positive		
[Cl-].[K+] [KCl]			positive	negative
